Source: patent US20260015350A1, “AZAQUINAZOLINE PAN-KRAS INHIBITORS” (Mirati Therapeutics, Inc., priority 2022, published 2026)

Key:
[1] = molecular target: T1, KRas^G12V (Homo sapiens, UniProt P01116, G12V); experiment: KRas binding assay (TR-FRET tracer displacement), KRas G12V
T1 construct: Biotinylated KRas (corresponding to amino acids 1-169, produced at Accelegan Inc.); biotin (biotinylated); purchased Accelegan Inc

[2] = tested on: KRas-mediated phosphorylation of ERK in MKN1 cells; experiment: Inhibition of KRas-mediated phosphorylation of ERK (Cisbio HTRF pERK), MKN1 cells; format: cell-based; details: Homo sapiens, MKN-1
Summary of the method: (§1)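 Phospho-ERK is quantified by HTRF with the Advanced pERK kit. Cells go in at 6,000/well in RPMI plus 10% FBS overnight at 37° C. under 5% CO2, with a 4-hour covered room-temperature incubation ahead of the read.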

[3] = tested on: KRas-mediated phosphorylation of ERK in A549 cells; experiment: Inhibition of KRas-mediated phosphorylation of ERK (Cisbio HTRF pERK), A549 cells; format: cell-based; details: Homo sapiens; for IC50: HTRF pERK
Summary of the method: (§2)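 HTRF readout of phospho-ERK in cell lysates after 3 hrs of compound exposure. Dosing: 10 uM top, 3-fold steps, 10 doses, final DMSO 0.8%. Min control: 0.2 uM Trametinib. Lysis ran 40 mins at 4° C, and antibody detection 2 hrs at room temperature.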

[4] = tested on: KRas-mediated phosphorylation of ERK in H358 cells; experiment: Inhibition of KRas-mediated phosphorylation of ERK (Cisbio HTRF pERK), H358 cells; format: cell-based; details: Homo sapiens; for IC50: NCI-H358, HTRF pERK
Summary of the method: (§3)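 A cell-based HTRF pERK assay: ten-point, threefold titrations beginning at 10 uM were applied for 3 hrs, with 0.2 uM Trametinib wells as the minimum control. Cells were lysed cold, and lysate was incubated with the antibody pair for 2 hrs before reading.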

[5] = tested on: KRas-mediated phosphorylation of ERK in H460 cells; experiment: Inhibition of KRas-mediated phosphorylation of ERK (Cisbio HTRF pERK), H460 cells; format: cell-based; details: Homo sapiens; for IC50: NCI-H460, HTRF pERK
Summary of the method: as §3

[6] = molecular target: T2, KRas^G12R (Homo sapiens, UniProt P01116, G12R); experiment: KRas binding assay (TR-FRET tracer displacement), KRas G12R
T2 construct: Biotinylated KRas (corresponding to amino acids 1-169, produced at Accelegan Inc.); biotin (biotinylated); purchased Accelegan Inc

[7] = tested on: KRas-mediated phosphorylation of ERK in HCT116 cells; experiment: Inhibition of KRas-mediated phosphorylation of ERK (Cisbio HTRF pERK), HCT116 cells; format: cell-based; details: Homo sapiens; for IC50: HCT-116, HTRF pERK
Summary of the method: as §2

[8] = tested on: KRas-mediated phosphorylation of ERK in H727 cells; experiment: Inhibition of KRas-mediated phosphorylation of ERK (Cisbio HTRF pERK), H727 cells; format: cell-based; details: Homo sapiens; for IC50: NCI-H727, H727 cells, HTRF pERK
Summary of the method: as §3

[9] = tested on: KRas-mediated phosphorylation of ERK in PSN1 cells; experiment: Inhibition of KRas-mediated phosphorylation of ERK (Cisbio HTRF pERK), PSN1 cells; format: cell-based; details: Homo sapiens
Summary of the method: as §1

[10] = tested on: KRas-mediated phosphorylation of ERK in AsPC-1 cells; experiment: Inhibition of KRas-mediated phosphorylation of ERK (Cisbio HTRF pERK), AsPC-1 cells; format: cell-based; details: Homo sapiens; for IC50: ASPC1, AsPC-1 cells, HTRF pERK
Summary of the method: as §3

[11] = molecular target: T3, KRas^G12D (Homo sapiens, UniProt P01116, G12D); experiment: KRas binding assay (TR-FRET tracer displacement), KRas G12D
T3 construct: Biotinylated KRas (corresponding to amino acids 1-169, produced at Accelegan Inc.); biotin (biotinylated); purchased Accelegan Inc
T3 sequence (P01116 1-169 isoform P01116-2 G12D): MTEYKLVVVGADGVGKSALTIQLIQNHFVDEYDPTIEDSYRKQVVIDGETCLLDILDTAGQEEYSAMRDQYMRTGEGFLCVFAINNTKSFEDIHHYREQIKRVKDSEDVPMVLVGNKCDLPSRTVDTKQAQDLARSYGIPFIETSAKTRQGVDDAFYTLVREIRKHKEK

T1 sequence (P01116 1-169 isoform P01116-2 G12V): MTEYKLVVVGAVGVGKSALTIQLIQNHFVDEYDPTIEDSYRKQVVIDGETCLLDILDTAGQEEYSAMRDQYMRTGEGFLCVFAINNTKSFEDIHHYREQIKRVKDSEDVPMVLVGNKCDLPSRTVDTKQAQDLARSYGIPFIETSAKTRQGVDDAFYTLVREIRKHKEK
T2 sequence (P01116 1-169 isoform P01116-2 G12R): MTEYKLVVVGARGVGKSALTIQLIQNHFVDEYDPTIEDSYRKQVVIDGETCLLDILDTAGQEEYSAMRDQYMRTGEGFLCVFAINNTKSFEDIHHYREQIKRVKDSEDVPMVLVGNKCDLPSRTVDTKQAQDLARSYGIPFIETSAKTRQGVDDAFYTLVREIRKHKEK

IC50 [1] [nM] | IC50 [2] [nM] | IC50 [3] [nM] | IC50 [4] [nM] | IC50 [5] [nM] | IC50 [6] [nM] | IC50 [7] [nM] | IC50 [8] [nM] | IC50 [9] [nM] | IC50 [10] [nM] | IC50 [11] [nM] | SMILES | inhibition at 0.1 µM ([3]; A549, 3 h, single point, 100 nM compound, 3 hrs) [%] | inhibition at 0.1 µM ([4]; NCI-H358, 3 h, single point, 100 nM compound, 3 hrs) [%] | inhibition at 0.1 µM ([5]; NCI-H460, 3 h, single point, 100 nM compound, 3 hrs) [%] | inhibition at 0.1 µM ([7]; HCT-116, 3 h, single point, 100 nM compound, 3 hrs) [%] | inhibition at 0.1 µM ([8]; NCI-H727, 3 h, single point, 100 nM compound, 3 hrs, H727 cells) [%] | inhibition at 0.1 µM ([10]; ASPC1, 3 h, single point, 100 nM compound, 3 hrs, AsPC-1 cells) [%]
32 | 208 | > 10000 | 1360 | 1990 | 34 | 3890 | 4000 | > 10000 | > 10000 | 145 | CCc1c(F)ccc2cc(O)cc(-c3ncc4c(N5CC6CCC(C5)C6CC(=O)NC)nc(OC[C@@]56CCCN5C[C@H](F)C6)nc4c3F)c12 (stereo partly drawn) [Example 863, 2-((1R,5S,8S)-3-(7-(8-ethyl-7-fluoro-3-hydroxynaphthalen-1-yl)-8-fluoro-2-(((2R,7aS)-2-fluorotetrahydro-1H-pyrrolizin-7a(5H)-yl)methoxy)pyrido[4,3-d]pyrimidin-4-yl)-3-azabicyclo[3.2.1]octan-8-yl)-N-methylacetamide] | – | – | – | – | – | –
26 | 174 | 2140 | 960 | 382 | 26 | 992 | 1630 | > 10000 | 2180 | 120 | CCc1c(F)ccc2cc(O)cc(-c3ncc4c(N5CC6CCC(COC(=O)N(C)C)(C6)C5)nc(OC[C@@]56CCCN5C[C@H](F)C6)nc4c3F)c12 (stereo partly drawn) [Example 892, (3-(7-(8-ethyl-7-fluoro-3-hydroxynaphthalen-1-yl)-8-fluoro-2-(((2R,7aS)-2-fluorotetrahydro-1H-pyrrolizin-7a(5H)-yl)methoxy)pyrido[4,3-d]pyrimidin-4-yl)-3-azabicyclo[3.2.1]octan-1-yl)methyl dimethylcarbamate] | – | – | – | – | – | –
3 | 16 | 125 | 52 | 53 | 6 | 186 | 83 | 4000 | 43 | 3 | CCc1c(F)ccc2cc(O)cc(-c3ncc4c(N5CCC[C@@](C)(O)C5)nc(OC[C@@]56CCCN5[C@@H](CF)CC6)nc4c3F)c12 [Example 878, (R)-1-(7-(8-ethyl-7-fluoro-3-hydroxynaphthalen-1-yl)-8-fluoro-2-(((3R,7aS)-3-(fluoromethyl)tetrahydro-1H-pyrrolizin-7a(5H)-yl)methoxy)pyrido[4,3-d]pyrimidin-4-yl)-3-methylpiperidin-3-ol] | – | – | – | – | – | –
< 2 | 14 | 51 | 9 | 36 | < 2 | 60 | 74 | 1550 | 94 | < 2 | CCc1c(F)ccc2cc3[nH]ncc3c(-c3ncc4c(N5CCC[C@]6(C5)NC(=O)NC6=O)nc(OC[C@@]56CCCN5C[C@H](F)C6)nc4c3F)c12 [Example 915, (5R)-7-(7-(5-ethyl-6-fluoro-1H-benzo[f]indazol-4-yl)-8-fluoro-2-(((2R,7aS)-2-fluorotetrahydro-1H-pyrrolizin-7a(5H)-yl)methoxy)pyrido[4,3-d]pyrimidin-4-yl)-1,3,7-triazaspiro[4.5]decane-2,4-dione] | – | – | – | – | – | –
2 | 22 | 73 | 18 | 27 | 4 | 59 | 135 | 2560 | 40 | 2 | CCc1c(F)ccc2cc(O)cc(-c3ncc4c(N5CCC[C@@](C)(O)C5)nc(OC[C@@]56CCCN5[C@@H](COC)CC6)nc4c3F)c12 [Example 886, (R)-1-(7-(8-ethyl-7-fluoro-3-hydroxynaphthalen-1-yl)-8-fluoro-2-(((3R,7aS)-3-(methoxymethyl)tetrahydro-1H-pyrrolizin-7a(5H)-yl)methoxy)pyrido[4,3-d]pyrimidin-4-yl)-3-methylpiperidin-3-ol] | – | – | – | – | – | –

Second part, the compound before the results:

SMILES | IC50 [1] [nM] | IC50 [2] [nM] | IC50 [3] [nM] | IC50 [4] [nM] | IC50 [5] [nM] | IC50 [6] [nM] | IC50 [7] [nM] | IC50 [8] [nM] | IC50 [9] [nM] | IC50 [10] [nM] | IC50 [11] [nM] | inhibition at 0.1 µM ([3]; A549, 3 h, single point, 100 nM compound, 3 hrs) [%] | inhibition at 0.1 µM ([4]; NCI-H358, 3 h, single point, 100 nM compound, 3 hrs) [%] | inhibition at 0.1 µM ([5]; NCI-H460, 3 h, single point, 100 nM compound, 3 hrs) [%] | inhibition at 0.1 µM ([7]; HCT-116, 3 h, single point, 100 nM compound, 3 hrs) [%] | inhibition at 0.1 µM ([8]; NCI-H727, 3 h, single point, 100 nM compound, 3 hrs, H727 cells) [%] | inhibition at 0.1 µM ([10]; ASPC1, 3 h, single point, 100 nM compound, 3 hrs, AsPC-1 cells) [%]
CCc1c(F)ccc2cc(O)cc(-c3ncc4c(N5CC6CCC(C5)C6CC(N)=O)nc(OC[C@@]56CCCN5C[C@H](F)C6)nc4c3F)c12 (stereo partly drawn) [Example 859, 2-((1R,5S,8S)-3-(7-(8-ethyl-7-fluoro-3-hydroxynaphthalen-1-yl)-8-fluoro-2-(((2R,7aS)-2-fluorotetrahydro-1H-pyrrolizin-7a(5H)-yl)methoxy)pyrido[4,3-d]pyrimidin-4-yl)-3-azabicyclo[3.2.1]octan-8-yl)acetamide] | 17 | 56 | > 10000 | 1140 | 892 | 13 | 1260 | 5480 | > 10000 | > 10000 | 51 | – | – | – | – | – | –
CCc1c(F)ccc2cc(O)cc(-c3ncc4c(N5CCC[C@@](C)(O)C5)nc(OC[C@@]56CCCN5[C@H](CNS(=O)(=O)N(C)C)CC6)nc4c3F)c12 [Example 789, (R)-1-(7-(8-ethyl-7-fluoro-3-hydroxynaphthalen-1-yl)-8-fluoro-2-(((3S,7aS)-3-(((dimethylsulfamoyl)amino)methyl)tetrahydro-1H-pyrrolizin-7a(5H)-yl)methoxy)pyrido[4,3-d]pyrimidin-4-yl)-3-methylpiperidin-3-ol] | < 2 | 6 | – | – | – | < 2 | – | 116 | 1750 | 32 | < 2 | 57 | 97 | 76 | 55 | 43 | 77
CCc1c(F)ccc2cc(O)cc(-c3ncc4c(N5CC6CCC(C5)C6CCO)nc(OC[C@@]56CCCN5C[C@H](F)C6)nc4c3F)c12 (stereo partly drawn) [Example 847, 5-ethyl-6-fluoro-4-(8-fluoro-2-(((2R,7aS)-2-fluorotetrahydro-1H-pyrrolizin-7a(5H)-yl)methoxy)-4-((1R,5S,8S)-8-(2-hydroxyethyl)-3-azabicyclo[3.2.1]octan-3-yl)pyrido[4,3-d]pyrimidin-7-yl)naphthalen-2-ol] | 20 | 270 | 1820 | 494 | 582 | 39 | 1430 | 1640 | > 10000 | 4520 | 140 | – | – | – | – | – | –
CN(C)CC1(COc2nc(N3CCCC4(CCO4)C3)c3cnc(-c4cc(O)cc5ccc(F)c(Cl)c45)c(F)c3n2)CC1 (stereo not shown) [Example 854, 5-chloro-4-(2-((1-((dimethylamino)methyl)cyclopropyl)methoxy)-8-fluoro-4-(1-oxa-6-azaspiro[3.5]nonan-6-yl)pyrido[4,3-d]pyrimidin-7-yl)-6-fluoronaphthalen-2-ol] | < 2 | 6 | 36 | 11 | 21 | < 2 | 40 | 48 | 3690 | 20 | < 2 | – | – | – | – | – | –
CCc1c(F)ccc2cc(O)cc(-c3ncc4c(N5CC6CCC(C5)C6(O)C(F)(F)F)nc(OC[C@@]56CCCN5C[C@H](F)C6)nc4c3F)c12 (stereo partly drawn) [Example 843, (1R,5S,8R)-3-(7-(8-ethyl-7-fluoro-3-hydroxynaphthalen-1-yl)-8-fluoro-2-(((2R,7aS)-2-fluorotetrahydro-1H-pyrrolizin-7a(5H)-yl)methoxy)pyrido[4,3-d]pyrimidin-4-yl)-8-(trifluoromethyl)-3-azabicyclo[3.2.1]octan-8-ol] | 79 | 55 | 2510 | 478 | 162 | 26 | 305 | 5300 | > 10000 | 6230 | 265 | – | – | – | – | – | –
